# Source: patent US20230151049A1, “Compounds Useful in HIV Therapy” (priority 2020, published 2023)
# Read-outs that look alike come from different tables or passages of the source.
# Assay: in vivo
# Settings: for concentration at 1 day / concentration at 7 day / concentration at 14 day / concentration at 21 day / concentration at 28 day / concentration at 35 day / concentration at 42 day / concentration at 49 day / concentration at 56 day / concentration at 63 day / concentration at 70 day / concentration at 77 day / concentration at 84 day: male, Wistar Han, rat, in vivo
# Procedure, shortened: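 Three male Wistar Han rats (200-250 g), not fasted, received a single intramuscular gastrocnemius injection of prodrug suspension at 20 mg/kg EFdA equivalent. Tail-vein blood was taken into NaF/Na2EDTA, mixed 1:1 with 100 mM ammonium acetate pH 4, frozen, and analysed by LC-MS/MS.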
smiles,measurement,setting,value
"C#C[C@]1(COP(=O)(N[C@@H](Cc2ccccc2)C(=O)OCCCCCCCCCCCCCCCCC)Oc2ccccc2)O[C@@H](n2cnc3c(N)nc(F)nc32)C[C@@H]1O (single isomer, unassigned) [Example 20A]",Mean concentration of EFdA,"day 77, single IM Example 20A 57 mg/kg","BQL (BQL = below quantification limit, 0.3 ng/mL for Example 20A and 0.1-0.3 ng/mL for EFdA)"
same,Mean concentration of EFdA,"day 84, single IM Example 20A 57 mg/kg","BQL (BQL = below quantification limit, 0.3 ng/mL for Example 20A and 0.1-0.3 ng/mL for EFdA)"
same,concentration at 1 day,"day 1, single IM Example 20A 57 mg/kg, read-out: Mean concentration of Example 20A",15.3 ng/mL
same,concentration at 7 day,"day 7, single IM Example 20A 57 mg/kg, read-out: Mean concentration of Example 20A",14.6 ng/mL
same,concentration at 14 day,"day 14, single IM Example 20A 57 mg/kg, read-out: Mean concentration of Example 20A",13.8 ng/mL
same,concentration at 21 day,"day 21, single IM Example 20A 57 mg/kg, read-out: Mean concentration of Example 20A",9.76 ng/mL
same,concentration at 28 day,"day 28, single IM Example 20A 57 mg/kg, read-out: Mean concentration of Example 20A",8.45 ng/mL
same,concentration at 35 day,"day 35, single IM Example 20A 57 mg/kg, read-out: Mean concentration of Example 20A",13.3 ng/mL
same,concentration at 42 day,"day 42, single IM Example 20A 57 mg/kg, read-out: Mean concentration of Example 20A",5.27 ng/mL
same,concentration at 49 day,"day 49, single IM Example 20A 57 mg/kg, read-out: Mean concentration of Example 20A",4.25 ng/mL
same,concentration at 56 day,"day 56, single IM Example 20A 57 mg/kg, read-out: Mean concentration of Example 20A",3.2 ng/mL
same,concentration at 63 day,"day 63, single IM Example 20A 57 mg/kg, read-out: Mean concentration of Example 20A",4.84 ng/mL
same,concentration at 70 day,"day 70, single IM Example 20A 57 mg/kg, read-out: Mean concentration of Example 20A",2.74 ng/mL
same,concentration at 77 day,"day 77, single IM Example 20A 57 mg/kg, read-out: Mean concentration of Example 20A",4 ng/mL
same,concentration at 84 day,"day 84, single IM Example 20A 57 mg/kg, read-out: Mean concentration of Example 20A",3.32 ng/mL
"C#C[C@]1(COP(=O)(N[C@@H](Cc2ccccc2)C(=O)OC(CCCCCCCCCCC)CCCCCCCCCCC)Oc2ccccc2)O[C@@H](n2cnc3c(N)nc(F)nc32)C[C@@H]1O (single isomer, unassigned) [Example 26A]",Mean concentration of EFdA,"day 1, single IM Example 26A 63 mg/kg","BQL (BQL = below quantification limit, 0.3 ng/ml for both)"
same,Mean concentration of EFdA,"day 7, single IM Example 26A 63 mg/kg","BQL (BQL = below quantification limit, 0.3 ng/ml for both)"
same,Mean concentration of EFdA,"day 14, single IM Example 26A 63 mg/kg","BQL (BQL = below quantification limit, 0.3 ng/ml for both)"
same,Mean concentration of EFdA,"day 21, single IM Example 26A 63 mg/kg","BQL (BQL = below quantification limit, 0.3 ng/ml for both)"
same,Mean concentration of EFdA,"day 28, single IM Example 26A 63 mg/kg","BQL (BQL = below quantification limit, 0.3 ng/ml for both)"
same,Mean concentration of EFdA,"day 35, single IM Example 26A 63 mg/kg","BQL (BQL = below quantification limit, 0.3 ng/ml for both)"
same,Mean concentration of EFdA,"day 42, single IM Example 26A 63 mg/kg","BQL (BQL = below quantification limit, 0.3 ng/ml for both)"
same,Mean concentration of EFdA,"day 49, single IM Example 26A 63 mg/kg","BQL (BQL = below quantification limit, 0.3 ng/ml for both)"
same,Mean concentration of EFdA,"day 56, single IM Example 26A 63 mg/kg","BQL (BQL = below quantification limit, 0.3 ng/ml for both)"
same,Mean concentration of EFdA,"day 63, single IM Example 26A 63 mg/kg","BQL (BQL = below quantification limit, 0.3 ng/ml for both)"
same,Mean concentration of EFdA,"day 70, single IM Example 26A 63 mg/kg","BQL (BQL = below quantification limit, 0.3 ng/ml for both)"
same,Mean concentration of EFdA,"day 77, single IM Example 26A 63 mg/kg","BQL (BQL = below quantification limit, 0.3 ng/ml for both)"
same,Mean concentration of EFdA,"day 84, single IM Example 26A 63 mg/kg","BQL (BQL = below quantification limit, 0.3 ng/ml for both)"
same,concentration at 1 day,"day 1, single IM 63 mg/kg, read-out: Mean concentration of Example 26A",72.7 ng/mL
same,concentration at 7 day,"day 7, single IM 63 mg/kg, read-out: Mean concentration of Example 26A",37.6 ng/mL
same,concentration at 14 day,"day 14, single IM 63 mg/kg, read-out: Mean concentration of Example 26A",33.8 ng/mL
same,concentration at 21 day,"day 21, single IM 63 mg/kg, read-out: Mean concentration of Example 26A",22.9 ng/mL
same,concentration at 28 day,"day 28, single IM 63 mg/kg, read-out: Mean concentration of Example 26A",18.5 ng/mL
same,concentration at 35 day,"day 35, single IM 63 mg/kg, read-out: Mean concentration of Example 26A",14.4 ng/mL
same,concentration at 42 day,"day 42, single IM 63 mg/kg, read-out: Mean concentration of Example 26A",11.1 ng/mL
same,concentration at 49 day,"day 49, single IM 63 mg/kg, read-out: Mean concentration of Example 26A",9.62 ng/mL
same,concentration at 56 day,"day 56, single IM 63 mg/kg, read-out: Mean concentration of Example 26A",9.8 ng/mL
same,concentration at 63 day,"day 63, single IM 63 mg/kg, read-out: Mean concentration of Example 26A",11.5 ng/mL
same,concentration at 70 day,"day 70, single IM 63 mg/kg, read-out: Mean concentration of Example 26A",9.95 ng/mL
same,concentration at 77 day,"day 77, single IM 63 mg/kg, read-out: Mean concentration of Example 26A",9.69 ng/mL
same,concentration at 84 day,"day 84, single IM 63 mg/kg, read-out: Mean concentration of Example 26A",7.43 ng/mL
"C#C[C@]1(COP(=O)(N[C@@H](C)C(=O)OC(CCCCCCCCCC)CCCCCCCCCC)Oc2ccccc2)O[C@@H](n2cnc3c(N)nc(F)nc32)C[C@@H]1O (single isomer, unassigned) [Example 37A]",Mean concentration of EFdA,"day 21, single IM Example 37A 56 mg/kg","BQL (BQL = below quantification limit, 0.3 ng/ml for both)"
same,Mean concentration of EFdA,"day 28, single IM Example 37A 56 mg/kg","BQL (BQL = below quantification limit, 0.3 ng/ml for both)"
same,Mean concentration of EFdA,"day 35, single IM Example 37A 56 mg/kg","BQL (BQL = below quantification limit, 0.3 ng/ml for both)"
same,Mean concentration of EFdA,"day 42, single IM Example 37A 56 mg/kg","BQL (BQL = below quantification limit, 0.3 ng/ml for both)"
same,Mean concentration of EFdA,"day 49, single IM Example 37A 56 mg/kg","BQL (BQL = below quantification limit, 0.3 ng/ml for both)"
same,Mean concentration of EFdA,"day 56, single IM Example 37A 56 mg/kg","BQL (BQL = below quantification limit, 0.3 ng/ml for both)"
same,Mean concentration of EFdA,"day 63, single IM Example 37A 56 mg/kg","BQL (BQL = below quantification limit, 0.3 ng/ml for both)"
same,Mean concentration of EFdA,"day 70, single IM Example 37A 56 mg/kg","BQL (BQL = below quantification limit, 0.3 ng/ml for both)"
same,Mean concentration of EFdA,"day 77, single IM Example 37A 56 mg/kg","BQL (BQL = below quantification limit, 0.3 ng/ml for both)"
same,Mean concentration of EFdA,"day 84, single IM Example 37A 56 mg/kg","BQL (BQL = below quantification limit, 0.3 ng/ml for both)"
same,concentration at 1 day,"day 1, single IM Example 37A 56 mg/kg, read-out: Mean concentration of Example 37A",17.9 ng/mL
same,concentration at 7 day,"day 7, single IM Example 37A 56 mg/kg, read-out: Mean concentration of Example 37A",3.58 ng/mL
same,concentration at 14 day,"day 14, single IM Example 37A 56 mg/kg, read-out: Mean concentration of Example 37A",3.8 ng/mL
same,concentration at 21 day,"day 21, single IM Example 37A 56 mg/kg, read-out: Mean concentration of Example 37A",5.16 ng/mL
same,concentration at 28 day,"day 28, single IM Example 37A 56 mg/kg, read-out: Mean concentration of Example 37A",4.16 ng/mL
same,concentration at 35 day,"day 35, single IM Example 37A 56 mg/kg, read-out: Mean concentration of Example 37A",4.95 ng/mL
same,concentration at 42 day,"day 42, single IM Example 37A 56 mg/kg, read-out: Mean concentration of Example 37A",5.29 ng/mL
same,concentration at 49 day,"day 49, single IM Example 37A 56 mg/kg, read-out: Mean concentration of Example 37A",4.89 ng/mL
same,concentration at 56 day,"day 56, single IM Example 37A 56 mg/kg, read-out: Mean concentration of Example 37A",4.94 ng/mL
same,concentration at 63 day,"day 63, single IM Example 37A 56 mg/kg, read-out: Mean concentration of Example 37A",4.46 ng/mL
same,concentration at 70 day,"day 70, single IM Example 37A 56 mg/kg, read-out: Mean concentration of Example 37A",3.78 ng/mL
same,concentration at 77 day,"day 77, single IM Example 37A 56 mg/kg, read-out: Mean concentration of Example 37A",3.46 ng/mL
same,concentration at 84 day,"day 84, single IM Example 37A 56 mg/kg, read-out: Mean concentration of Example 37A",3.32 ng/mL
